# In doi:10.1101/2025.04.25.650653, “Hierarchical small molecule inhibition of MYST acetyltransferases” (bioRxiv, 2025):
# “And” between values parts separate entries of the source, which are not always exact repeats. Identical values can stand only once.
# System: histone modifications in MCF-7 cells
# Test: Histone modification analysis by bottom-up LC-MS/MS
# Type: cell-based
# Conditions: for Ratio, H2A1_12_17 unmod / Ratio, H2A3_12_17 K15me1: MCF-7; for Ratio, H3_3_8 K4me1 / Ratio, H3_3_8 unmod / Ratio, H3_54_63 unmod / Ratio, H3_41_49 unmod: Replicates 1-3
# From the text: In this approach. […] Histones are then extracted from cell pellets and chemically derivatized with propionic anhydride, digested with trypsin, subjected to a second round of propionylation, and analyzed by LC-MS/MS. Measuring the relative intensity of modified versus unmodified forms of individual histone peptides enables simultaneous monitoring of multiple potential biomarkers of MYST inhibition. To minimize false positives, we focused on abundant and reproducible modifications (average stoichiometry of greater than 1% across triplicate samples, standard deviation less than or equal to the average measurement). To account for potential histone modification crosstalk, changes in both acetylated and methylated peptides were evaluated. 38 modified peptides passed this reproducible detection threshold including several established KAT biomarkers[41] including H3K9Ac (KAT2A/B), H3K18Ac (KAT3A/B), H3K14Ac (KAT7), H3K23Ac (KAT6A/B), H4K16Ac (KAT8), and H2A.ZK4/K7Ac (KAT5; Fig. 4B).
# Histone modification analysis
# MCF-7 cells were cultured at 37 °C under 5% CO2 in EMEM (Quality Biological, 112-016-101) with 0.01 mg/mL human recombinant insulin (Sigma Aldrich, 91077C), 2 mM L-glutamine (Quality Biological, 118- […]
# human recombinant insulin.
# 1119, WM-3835). Following 24 h inhibitor treatment, cells were washed with ice-cold 1× PBS and scraped in 150 µL of Nuclear Isolation Buffer (NIB) containing 0.1% NP-40 for histone extraction using a modified protocol from the Garcia laboratory. 9 Briefly, cell suspensions were incubated on ice for 5 minutes, and […]
# nuclei were pelleted by centrifugation (600 rcf, 4°C, 5 min). Pelleted nuclei were washed twice with 150 μL of detergent-free NIB buffer, followed by centrifugation (600 rcf, 4°C, 5 min) to remove all detergent.
# Nuclei were then resuspended in 400 μL of 0.4 N H₂SO₄ and rotated at 4°C overnight for acid extraction of histones. The following day, samples were centrifuged (11,000 rcf, 4°C, 10 min) and the histone-containing supernatant was transferred to a fresh tube. Trichloroacetic acid (100% TCA) was added to achieve a final concentration of 20% (v/v), tubes were inverted once to mix, and histone precipitation was performed on ice for at least 3 hours or overnight at 4°C. Precipitated histones were collected by centrifugation (11,000 rcf, 4°C, 10 min) and the supernatant carefully removed, leaving a visible film of histones on the tube wall or bottom. Histone pellets were subjected to sequential washes with 1 mL of ice-cold acidified acetone (0.1% 12 N HCl) followed by 1 mL of 100% ice-cold acetone, with centrifugation (11,000 rcf, 4°C, 5 min) after each wash. Samples were air-dried at room temperature, resuspended in 40 µL of ddH₂O, and protein […]
# analysis, 1-2 µg of purified histones were loaded per lane and processed according to the general immunoblotting protocol described in General Materials and Methods.
# Analysis of histone modifications by LC-MS/MS
# Preparation of histone samples for LC-MS/MS was performed analogously to the procedure for immunoblotting above, with the following modifications. MCF7 cells (4.2 × 106) were seeded in 15 cm dishes and treated with PF-9363 or vehicle. Experiments were performed in triplicate. Following treatment and PBS washing, cells were scraped and collected in 15 mL falcon tubes, pelleted (500 rcf, 4°C, 5 min), resuspended in 1 mL cold PBS, transferred to microcentrifuge tubes, and pelleted again before flash-freezing in liquid nitrogen for storage at -80°C. For extraction, cell pellets (~100 μL) were resuspended in NIB buffer at a 1:10 ratio, and cells were lysed with NIB buffer containing 0.2% NP-40 for 8 minutes on ice. Nuclei were pelleted at 1,000 rcf for 8 minutes and washed three times with 500 μL detergent-free NIB buffer. Histones were extracted using 800 μL of 0.2 M H₂SO₄, and after centrifugation (3,400 rcf, 4°C, 10
# [1] = TKQTAR(H3_3_8), PF-9363 0.1 v 30
# [2] = TKQTAR(H3_3_8), PF-9363 (0.1 mM)
# [3] = TKQTAR(H3_3_8), PF-9363 (30 mM)
smiles,measurement,setting,value
COc1cccc(OC)c1S(=O)(=O)Nc1noc2cc(Cn3cccn3)cc(OC)c12 [PF-9363],"Ratio, H2A1_12_17 unmod","Replicate 2, PF-9363 30",0.4993
same,"Ratio, H2A3_12_17 K15me1","Replicate 2, PF-9363 30",0.4897
same,"Ratio, H2A1_12_17 unmod","Replicate 3, PF-9363 0.1",0.4868
same,"Ratio, H2A3_12_17 K15me1","Replicate 3, PF-9363 0.1",0.466
same,"Ratio, H2A1_12_17 unmod","Replicate 3, PF-9363 1",0.5044
same,"Ratio, H2A3_12_17 K15me1","Replicate 3, PF-9363 1",0.4869
same,"Ratio, H2A1_12_17 unmod","Replicate 3, PF-9363 10",0.4939
same,"Ratio, H2A3_12_17 K15me1","Replicate 3, PF-9363 10",0.4755
same,"Ratio, H2A1_12_17 unmod","Replicate 3, PF-9363 30",0.5006
same,"Ratio, H2A3_12_17 K15me1","Replicate 3, PF-9363 30",0.4892
same,"Fold-change 0.1 v 30, H3_3_8 K4me1",[1],1.02
same,"Fold-change 0.1 v 30, H3_3_8 unmod",[1],1.00
same,"Average ratio, H3_3_8 K4me1",[2],0.0973
same,"Average ratio, H3_3_8 unmod",[2],0.8963
same,"Average ratio, H3_3_8 K4me1",[3],0.0953
same,"Average ratio, H3_3_8 unmod",[3],0.8973
same,"Ratio, H3_3_8 K4me1","TKQTAR(H3_3_8), dose 0.1",0.09461 and 0.103 and 0.09428
same,"Ratio, H3_3_8 unmod","TKQTAR(H3_3_8), dose 0.1",0.9002 and 0.8874 and 0.9011
same,"Ratio, H3_3_8 K4me1","TKQTAR(H3_3_8), dose 1",0.09313 and 0.09156 and 0.09495
same,"Ratio, H3_3_8 unmod","TKQTAR(H3_3_8), dose 1",0.903 and 0.9014 and 0.9006
same,"Ratio, H3_3_8 K4me1","TKQTAR(H3_3_8), dose 10",0.1087 and 0.09351 and 0.1018
same,"Ratio, H3_3_8 unmod","TKQTAR(H3_3_8), dose 10",0.8856 and 0.9033 and 0.8936
same,"Ratio, H3_3_8 K4me1","TKQTAR(H3_3_8), dose 30",0.09818 and 0.09712 and 0.09049
same,"Ratio, H3_3_8 unmod","TKQTAR(H3_3_8), dose 30",0.8954 and 0.8931 and 0.9034
same,"Fold-change 0.1 v 30, H3_54_63 unmod","YQKSTELLIR(H3_54_63), PF-9363 0.1 v 30",0.99
same,"Average ratio, H3_54_63 unmod","YQKSTELLIR(H3_54_63), PF-9363 (0.1 mM)",0.9888
same,"Average ratio, H3_54_63 unmod","YQKSTELLIR(H3_54_63), PF-9363 (30 mM)",0.9942
same,"Ratio, H3_54_63 unmod","YQKSTELLIR(H3_54_63), dose 0.1",0.9974 and 0.9808 and 0.9881
same,"Ratio, H3_54_63 unmod","YQKSTELLIR(H3_54_63), dose 1",0.9878 and 0.9887 and 0.9945
same,"Ratio, H3_54_63 unmod","YQKSTELLIR(H3_54_63), dose 10",0.9895 and 0 and 0.9781
same,"Ratio, H3_54_63 unmod","YQKSTELLIR(H3_54_63), dose 30",0.9962 and 0.9919 and 0.9944
same,"Fold-change 0.1 v 30, H3_41_49 unmod","YRPGTVALR(H3_41_49), PF-9363 0.1 v 30",1.00
same,"Average ratio, H3_41_49 unmod","YRPGTVALR(H3_41_49), PF-9363 (0.1 mM)",0.9999
same,"Average ratio, H3_41_49 unmod","YRPGTVALR(H3_41_49), PF-9363 (30 mM)",0.9999
same,"Ratio, H3_41_49 unmod","YRPGTVALR(H3_41_49), dose 0.1",0.9999 and 1 and 0.9998
same,"Ratio, H3_41_49 unmod","YRPGTVALR(H3_41_49), dose 1",0.9993 and 1 and 0.9999
same,"Ratio, H3_41_49 unmod","YRPGTVALR(H3_41_49), dose 10",0.9997 and 1 and 0.9999
same,"Ratio, H3_41_49 unmod","YRPGTVALR(H3_41_49), dose 30",1 (2×) and 0.9996
same,"Fold-change 0.1 v 30, H2A1_1_11 K5ac",average ratio 0.1 v 30,0.99
same,"Fold-change 0.1 v 30, H2A1_4_11 K5ac",average ratio 0.1 v 30,0.88
same,"Fold-change 0.1 v 30, H2A1_4_11 K9ac",average ratio 0.1 v 30,1.17
same,"Fold-change 0.1 v 30, H2A1_4_11 unmod",average ratio 0.1 v 30,0.99
same,"Fold-change 0.1 v 30, H2A1_36_42 unmod",average ratio 0.1 v 30,1.00
same,"Fold-change 0.1 v 30, H2A3_36_42 unmod",average ratio 0.1 v 30,1.00
same,"Fold-change 0.1 v 30, H2AJ_4_11 K5acK9ac",average ratio 0.1 v 30,0.98
same,"Fold-change 0.1 v 30, H2AV_1_19 K4ac",average ratio 0.1 v 30,0.98
same,"Fold-change 0.1 v 30, H2AV_1_19 unmod",average ratio 0.1 v 30,1.14
same,"Fold-change 0.1 v 30, H2AX_36_42 unmod",average ratio 0.1 v 30,1.00
same,"Fold-change 0.1 v 30, H2AZ_1_19 K11ac",average ratio 0.1 v 30,0.64
same,"Fold-change 0.1 v 30, H2AZ_1_19 unmod",average ratio 0.1 v 30,0.92
same,"Fold-change 0.1 v 30, H3_73_83 K79me1",average ratio 0.1 v 30,1.08
same,"Fold-change 0.1 v 30, H3_73_83 K79me2",average ratio 0.1 v 30,1.32
same,"Fold-change 0.1 v 30, H3_73_83 unmod",average ratio 0.1 v 30,0.97
same,"Fold-change 0.1 v 30, H4_4_17 K12acK16ac",average ratio 0.1 v 30,0.05
same,"Fold-change 0.1 v 30, H4_4_17 unmod",average ratio 0.1 v 30,1.46
same,"Fold-change 0.1 v 30, H4_20_23 K20me1",average ratio 0.1 v 30,1.30
same,"Fold-change 0.1 v 30, H4_20_23 unmod",average ratio 0.1 v 30,1.38
